# Source: PubChem BioAssay AID434930 (Broad Institute, 2010)
# Inconclusive results are not listed. Active and inactive are the calls of the source.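 How the source made its calls: active means fitted EC50 no higher than ten times the highest tested concentration; inconclusive means flat fit with 30 to 70% inhibition, or poor fit; inactive means EC50 beyond ten times the top tested dose.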
# System: C. albicans CaCi-2 + fluconazole, Alamar Blue growth, 48 h
# Assay: fluconazole-resistant Candida growth suppression, fluconazole present – C. albicans CaCi-2 (fluconazole-resistant clinical isolate), fluorescence, retest, dose response (AID 434930)
row,SMILES,EC50
1,O=C(Nc1nnc(-c2ccco2)o1)c1ccc(Cl)cc1,1.28 µM
2,COc1ccc(-n2nc(C(=O)NCC(=O)N3CCN(c4ccccc4)CC3)c3ccccc3c2=O)c(OC)c1,7.17 µM
3,Cc1ccc(C(=O)c2coc3c2C(=O)C(=O)c2ccccc2-3)cc1,2.89 µM
4,O=C(Nc1nnc(-c2ccc3c(c2)CCCC3)o1)c1ccc(Cl)cc1Cl,0.321 µM
5,Cc1ccc(/C=C/C(=O)c2ccccc(=O)c2O)cc1C,> 26 µM (inactive)
6,CC(C)N1CCc2c(sc(NC(=O)c3nc4ccccc4s3)c2C(N)=O)C1,1.19 µM
7,O=c1c2cc(Br)ccc2nc(-c2cccc(C(F)(F)F)c2)n1O,4.16 µM
8,O=C(Nc1sc2c(c1C(=O)c1ccc(Cl)cc1)CCCC2)c1cccnc1,1.83 µM
9,Cc1nc2ccccc2cc1OCc1ccc(F)cc1,8.45 µM
10,O=C(Nc1nnc(CCc2ccccc2)s1)c1ccco1,3.08 µM
11,Nc1nccnc1C(=O)Nc1nnc(SCc2ccc(Cl)cc2)s1,2.11 µM
12,CCOC(=O)N1C(=O)C2(CCCCC2)N(c2ccc(C)cc2)C1=S,< 0.1 µM
13,Cc1oc2c(F)c(F)c(F)c(F)c2c1S(=O)(=O)Nc1cccc(C(F)(F)F)c1,10.8 µM
14,O=C(Oc1c(Cl)cc(Cl)c2cccnc12)c1cccs1,0.28 µM
15,O=C(Nc1nc(-c2ccccn2)cs1)c1ccc(Br)s1,11.1 µM
16,Clc1ccc2c(c1)C(c1cccs1)=NNC(c1cccnc1)=N2,0.0778 µM
17,CCCC(=O)NC(c1ccccc1)c1ccc2cccnc2c1O (stereo not drawn),0.577 µM
18,Cc1ccc(C(=O)Nc2cccc(-c3cn4ccccc4n3)c2)cc1,6.79 µM
19,CCCC(=O)NC(c1ccc(Cl)cc1)c1ccc2cccnc2c1O (stereo not drawn),0.485 µM
20,CC(C)COCc1ccc(O)c2ncccc12,16.5 µM
21,O=C(NNC1=C(C(=O)C(F)(F)F)CCC1)c1ccc(Cl)cc1,18.8 µM
22,COc1ccc(-c2nnc(NC(=O)c3ccc(F)cc3)o2)cc1,0.489 µM
23,COc1cc2c(cc1NC(=O)c1ccco1)CCCC2,0.103 µM
